Experimental data: the supplement of paper PMC10307832

Legend:
Assay in all cases: relative viability (nuclei count vs DMSO), 5 days (fraction); higher = more cells survive
[1] = compound: CNC(=O)c1cc(Oc2ccc(NC(=O)Nc3ccc(Cl)c(C(F)(F)F)c3)cc2)ccn1 [Sorafenib] + CC(=O)c1c(C)c2cnc(Nc3ccc(N4CCNCC4)cn3)nc2n(C2CCCC2)c1=O [Palbociclib] (partner 0.5 µM)
How it was run: (§1)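 Medians of duplicate plates are given as relative viability. That measure is the nuclei count in treated wells divided by the count in vehicle wells. Counts were taken on 4× images of lung cancer cell lines in 1536-well plates, 5 days after pin-tool dosing the day after seeding with one drug alone or a fixed anchor-drug dose plus five library-drug doses (not always all listed) in √10 steps.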

[2] = compound: CNC(=O)c1cc(Oc2ccc(NC(=O)Nc3ccc(Cl)c(C(F)(F)F)c3)cc2)ccn1 [Sorafenib] + CC(C)C[C@H](NC(=O)[C@H](Cc1ccccc1)NC(=O)c1cnccn1)B(O)O [Bortezomib] (partner 0.002 µM)
How it was run: as §1

[3] = compound: CNC(=O)c1cc(Oc2ccc(NC(=O)Nc3ccc(Cl)c(C(F)(F)F)c3)cc2)ccn1 [Sorafenib] + CS(=O)(=O)N1CCN(Cc2cc3nc(-c4cccc5[nH]ncc45)nc(N4CCOCC4)c3s2)CC1 [Pictilisib] (partner 1 µM)
How it was run: as §1

[4] = compound: CNC(=O)c1cc(Oc2ccc(NC(=O)Nc3ccc(Cl)c(C(F)(F)F)c3)cc2)ccn1 [Sorafenib] + Nc1nc2[nH]cc(CCc3ccc(C(=O)N[C@@H](CCC(=O)O)C(=O)O)cc3)c2c(=O)[nH]1 [Pemetrexed] (partner 0.2 µM)
How it was run: as §1

[5] = compound: CNC(=O)c1cc(Oc2ccc(NC(=O)Nc3ccc(Cl)c(C(F)(F)F)c3)cc2)ccn1 [Sorafenib] + O=C(c1cc(Cc2n[nH]c(=O)c3ccccc23)ccc1F)N1CCN(C(=O)C2CC2)CC1 [Olaparib] (partner 8 µM)
How it was run: as §1

Cell Line	relative viability ([1]; first compound 0.08 µM)	relative viability ([1]; first compound 0.253 µM)	relative viability ([1]; first compound 2.53 µM)	relative viability ([1]; first compound 8 µM)	relative viability ([2]; first compound 0.08 µM)	relative viability ([2]; first compound 0.253 µM)	relative viability ([2]; first compound 2.53 µM)	relative viability ([2]; first compound 8 µM)	relative viability ([3]; first compound 0.08 µM)	relative viability ([3]; first compound 0.253 µM)	relative viability ([3]; first compound 2.53 µM)	relative viability ([3]; first compound 8 µM)	relative viability ([4]; first compound 0.08 µM)	relative viability ([4]; first compound 0.253 µM)	relative viability ([4]; first compound 2.53 µM)	relative viability ([4]; first compound 8 µM)	relative viability ([5]; first compound 0.08 µM)	relative viability ([5]; first compound 0.253 µM)	relative viability ([5]; first compound 2.53 µM)	relative viability ([5]; first compound 8 µM)
NCI-H2126	0.354	0.375	0.411	0.399	1.14	1.17	1.09	1.16	0.498	0.505	0.618	0.54	0.763	0.672	0.681	0.706	0.935	0.851	0.96	0.913
NCI-H2228	0.692	0.883	0.589	0.517	1.24	0.893	1.02	0.615	0.384	0.375	0.337	0.529	0.361	0.323	0.244	0.31	0.868	0.46	0.532	0.294
NCI-H2347	0.432	0.464	0.434	0.43	1.13	0.997	1.02	0.868	0.956	0.479	0.641	0.493	0.442	0.398	0.425	0.413	0.675	0.502	0.503	0.519
NCI-H2405	0.553	0.517	0.561	0.477	1.03	0.905	1	0.926	0.539	0.39	0.363	0.293	1.12	0.902	1.13	0.982	0.891	0.852	0.887	0.807
NCI-H3122	0.204	0.2	0.177	0.18	0.993	0.984	1.06	0.952	0.762	0.671	0.604	0.234	0.209	0.194	0.222	0.167	0.639	0.611	0.6	0.53
PC-3 [JPC-3]	0.522	0.552	0.576	0.606	0.875	0.726	0.818	0.928	0.813	0.659	0.752	0.679	1.11	0.856	1.34	1.2	1.18	1.12	1.18	0.944
PC-14	0.62	0.512	0.518	0.158	0.911	0.89	0.827	0.316	0.748	0.542	0.625	0.344	0.133	0.137	0.123	0.102	0.323	0.315	0.238	0.105
RERF-LC-KJ	1.05	0.961	1.03	0.759	1.12	0.992	1.17	0.992	0.604	0.578	0.612	0.438	0.485	0.458	0.524	0.417	0.979	0.784	–	0.297
SK-LU-1	0.474	0.372	0.362	0.326	1.16	1.07	1.11	0.735	0.61	0.439	0.579	0.412	1.06	0.871	0.897	0.388	0.534	0.361	0.549	0.317
SW 1573	0.39	0.363	0.417	0.09	1.22	1.05	0.989	0.286	0.464	0.465	0.402	0.257	0.911	–	0.719	0.374	0.47	0.518	0.437	0.132
UMC-11	0.284	0.355	0.334	0.188	0.609	0.627	0.702	0.231	0.85	0.78	0.759	0.523	0.869	0.788	0.772	0.474	0.39	0.375	0.38	0.15
